Measured values from ChEMBL document CHEMBL1130801, “PF1022A--a novel anthelmintic cyclooctadepsipeptide. Modification and exchange of the N-methyl leucine residues” (Bioorg Med Chem Lett, 1998).

How the values were obtained:
Ovis aries [1] = assay: Anthelmintic activity against Haemonchus contortus nematode in sheep was determined as a function of 75 to >/= 90% egg reduction after p.o. administration; format: functional
[2] = Partition coefficient in n-octanol/ water system at pH= 7.0; format: physicochemical
Ovis aries [3] = assay: Anthelmintic activity against Haemonchus contortus nematode in sheep was determined as a function of 50-75% egg reduction after p.o. administration; format: functional
Ovis aries [4] = assay: Anthelmintic activity against Haemonchus contortus nematode in sheep was determined as a function of </= 50% egg reduction after i.v. administration; format: functional
Ovis aries [5] = assay: Anthelmintic activity against Haemonchus contortus nematode in sheep was determined as a function of </=50% egg reduction after p.o. administration; format: functional
Ovis aries [6] = assay: Anthelmintic activity against Haemonchus contortus nematode in sheep was determined as a function of >/= 90% egg reduction after i.v. administration; format: functional
Ovis aries [7] = assay: Anthelmintic activity against Haemonchus contortus nematode in sheep was determined as a function of 75-90% egg reduction after p.o. administration; format: functional
Ovis aries [8] = assay: Anthelmintic activity against Haemonchus contortus nematode in sheep was determined as a function of >/= 90% egg reduction after p.o. administration; format: functional

Row | Compound | logD [2] | Activity (Ovis aries [4]) | Activity (Ovis aries [6]) | other results
1 | CCN1C(=O)[C@H](C)OC(=O)[C@H](CC(C)C)N(CC)C(=O)[C@@H](Cc2ccccc2)OC(=O)[C@H](CC(C)C)N(CC)C(=O)[C@@H](C)OC(=O)[C@H](CC(C)C)N(CC)C(=O)[C@@H](Cc2ccccc2)OC(=O)[C@@H]1CC(C)C | 7.2 | – | – | Activity (Ovis aries [1]): 0.25
2 | CCCN1C(=O)[C@H](C)OC(=O)[C@H](CC(C)C)N(CCC)C(=O)[C@@H](Cc2ccccc2)OC(=O)[C@H](CC(C)C)N(CCC)C(=O)[C@@H](C)OC(=O)[C@H](CC(C)C)N(CCC)C(=O)[C@@H](Cc2ccccc2)OC(=O)[C@@H]1CC(C)C | 8.4 | – | – | Activity (Ovis aries [3]): 0.25
3 | C[C@@H]1OC(=O)[C@H](C)N(C)C(=O)[C@@H](Cc2ccccc2)OC(=O)[C@H](C)N(C)C(=O)[C@@H](C)OC(=O)[C@H](C)N(C)C(=O)[C@@H](Cc2ccccc2)OC(=O)[C@H](C)N(C)C1=O | 3.1 | 0.5 | – | –
4 | CCC(C)[C@H]1C(=O)O[C@H](Cc2ccccc2)C(=O)N(C)[C@@H](C(C)CC)C(=O)O[C@H](C)C(=O)N(C)[C@@H](C(C)CC)C(=O)O[C@H](Cc2ccccc2)C(=O)N(C)[C@@H](C(C)CC)C(=O)O[C@@H](C)C(=O)N1C (stereo partly specified) | 6.6 | – | 1 | Activity (Ovis aries [5]): 5
5 | CC(C)[C@H]1C(=O)O[C@H](Cc2ccccc2)C(=O)N(C)[C@@H](C(C)C)C(=O)O[C@H](C)C(=O)N(C)[C@@H](C(C)C)C(=O)O[C@H](Cc2ccccc2)C(=O)N(C)[C@@H](C(C)C)C(=O)O[C@@H](C)C(=O)N1C | 5.5 | – | 1 | Activity (Ovis aries [3]): 0.25
6 | CC(C)C[C@H]1C(=O)O[C@H](Cc2ccccc2)C(=O)N(C)[C@@H](C)C(=O)O[C@@H](C)C(=O)N(C)[C@@H](C)C(=O)O[C@H](Cc2ccccc2)C(=O)N(C)[C@@H](CC(C)C)C(=O)O[C@H](C)C(=O)N1C | 4.6 | 0.5 | – | –
7 | CC(C)C[C@H]1C(=O)O[C@H](Cc2ccccc2)C(=O)N(C(C)C)[C@@H](CC(C)C)C(=O)O[C@H](C)C(=O)N(C(C)C)[C@@H](CC(C)C)C(=O)O[C@H](Cc2ccccc2)C(=O)N(C(C)C)[C@@H](CC(C)C)C(=O)O[C@@H](C)C(=O)N1C(C)C | 8.6 | – | – | Activity (Ovis aries [7]): 1
8 | C[C@@H]1OC(=O)[C@H](Cc2ccccc2)N(C)C(=O)[C@@H](Cc2ccccc2)OC(=O)[C@H](Cc2ccccc2)N(C)C(=O)[C@@H](C)OC(=O)[C@H](Cc2ccccc2)N(C)C(=O)[C@@H](Cc2ccccc2)OC(=O)[C@H](Cc2ccccc2)N(C)C1=O | 5.9 | 5 | – | –
9 | CCC[C@H]1C(=O)O[C@H](Cc2ccccc2)C(=O)N(C)[C@@H](CC(C)C)C(=O)O[C@H](C)C(=O)N(C)[C@@H](CC(C)C)C(=O)O[C@H](Cc2ccccc2)C(=O)N(C)[C@@H](CCC)C(=O)O[C@@H](C)C(=O)N1C | 5.5 | – | 0.5 | Activity (Ovis aries [5]): 0.1
10 | CCC[C@H]1C(=O)O[C@H](Cc2ccccc2)C(=O)N(C)[C@@H](CCC)C(=O)O[C@H](C)C(=O)N(C)[C@@H](CCC)C(=O)O[C@H](Cc2ccccc2)C(=O)N(C)[C@@H](CCC)C(=O)O[C@@H](C)C(=O)N1C | 5.1 | 0.5 | – | –
11 | CC(C)C[C@H]1C(=O)O[C@H](Cc2ccccc2)C(=O)N(C)[C@@H](CC(C)C)C(=O)O[C@H](C)C(=O)N(C)[C@@H](CC(C)C)C(=O)O[C@H](Cc2ccccc2)C(=O)N(C)[C@@H](CC(C)C)C(=O)OC(C)C(=O)N1C (single isomer, unassigned) | 5.9 | – | 0.1 | Activity (Ovis aries [8]): 0.1
